Entries after “also recorded” stand apart in the source; their conditions may differ.
Tests used:
DNA-PK = experiment: Phosphorylation of DNA-PK in irradiated BM lin- cells; format: cell-based, mouse; conditions: 300 cGy BM lin- cells, EGF 20 ng/ml, vs cytokines alone
Procedure: The phosphorylation of the T2647 domain of DNA-PK was measured using immunofluorescence and flow cytometric analysis. […] Cells were separated onto a glass slide, fixed with 4% paraformaldehyde and permeabilized with 0.3% Triton-X. Cells were stained with rabbit polyclonal DNA-PK or rabbit IgG (Abeam, Cambridge, Mass.) and donkey anti-rabbit Alexafluor 488 antibody and counterstained with Hoechst 33342 (Life Technologies, Grand Island, N.Y.).

BM KSL cells = experiment: BrdU incorporation in BM KSL cells in vivo after 700 cGy TBI; parameters: species or system mouse; conditions: day +7 following 700 cGy TBI, EGF daily x 7 days, vs saline
Procedure: Cell proliferation was measured in C57B16 mice exposed to 700 cGy TBI and administered 5-bromo-2-deoxyridine (BrdU, BD) in drinking water from the day of irradiation until day +7. BM cells were labeled with anti-cKit PE, anti-scal PE-Cy7, anti-lineage APC, and anti-BrdU FITC. Incorporation of BrdU was analyzed by flow cytometry according to the manufacturer's staining protocol (BD).

[1] = system: BM hematopoietic stem and progenitor cells; experiment: Hematopoietic regeneration in C57B16 mice after 700 cGy TBI (progenitor assays, competitive repopulation); format: in vivo, mouse
Procedure: BM cells were collected into PBS (Cellgro, Manassas, Va.) with 10% fetal bovine serum (Hyclone, Logan, Utah) and 1% penicillin/streptomycin (GIBCO, Grand Island, N.Y.). Viable BM cells were quantified using Trypan Blue Stain (Lonza, Basel, Switzerland) to exclude apoptotic and dead cells. Cells were then incubated with anti-c-kit, anti-Sca-1, anti-lineage cocktail, anti-CD41, anti-CD48, and anti-CD150 antibodies (Biolegend and eBiosciences, San Diego, Calif.; BD, San Jose, Calif.) to measure ckit^+sca-1^+lin^− (KSL) progenitor cells or CD150′CD41^−CD48^−KSL (SLAM/KSL) as previously described (Kiel et al, Cell 121:1109-1121 (2005)). Colony forming cells (CFCs) and CFU-S12 assays were also performed to measure functional hematopoietic stem/progenitor cell content. For CFCs, either whole BM or cultured lineage−cells, or KSL cells were plated onto methylcellulose (StemCell Technologies, Vancouver, BC, Canada), and colonies were scored on day 14. 1×10^5 BM or 2×10^5 cells were collected from donor mice and injected via tail vein into recipient C57B16 mice that had been given 950 cGy TBI. At day +12 post-injection, spleens from recipient mice were harvested and stained with Bouin's fixative solution (Ricca Chemical Company, Arlington, Tex.), and colonies were counted as previously described (Till and MeRadiat. Res. 14:213-222 (1961)). Complete blood counts were performed on a HemaVet 950 (Drew Scientific, Dallas, Tex.).
Competitive repopulation assays were also performed using donor C57B16 mice (CD45.2^+) that had been irradiated with 700 cGy TBI and gavaged daily with 10 μg/G erlotinib (Genentech, San Francisco, Calif.) or 150 μl water beginning on day 0 and continued through day +14. Donor BM cells were injected via tail vein into recipient B6.SJL mice (CD45.1^+) at a dose of 5×10^5 cells with a competing dose of host 1×10^5 BM MNCs. Tie2Cre;Bak1^−/−;Bax^FL/− mice were gavaged daily with 10 μg/G erlotinib or water starting day −3 and given 300 cGy TBI on day 0. Erlotinib administration continued until the timepoint of donor BM cell collection and analysis. Tie2Cre;Bak1^−/−;Bax^FL/− BM cells were injected via tail vein into recipient CD45.1^+ mice at a cell dose of 3×10^5 cells with a competing dose of host 1×10^5 CD45.1^+ cells. Multilineage hematopoietic reconstitution was measured in the PB of recipient mice by flow cytometry at 4, 8, and 12 weeks post-transplant. For survival studies with erlotinib administration, C57B16 mice were exposed to 700 cGy and then given 10 μg/G erlotinib or water starting day −3 and continuing daily through day +14.
Ten micrometer sections were cut using they CryoJane tape system (Instrumedics Inc, Hackensack, N.J., USA). Femurs were stained with hematoxylin and eosin or anti-mouse endothelial cell antibody (MECA-32) as previously described (Salter et al, Blood 113:2104-2107 (2009)) to assess BM cellularity and the BM vasculature after irradiation. Images were obtained using an Axiovert 200 microscope (Carl Zeiss Microscopy, Thornwood, N.Y.) or a Leica SP5 confocal microscope (Leica Microsystems Inc, Buffalo Grove, Ill.). Adobe Photoshop software (version 9.0.2, Adobe Systems, San JoSe, Calif.) was used to quantify positive signal as a measure of spatial distribution in the fields (Lehr et al, J. Histochem. Cytochem. 45:1559-1565 (1997), Lehr et al, J. Histochem. Cytochem. 47:119-126 (1999)).

BM 34-KSL cells = experiment: Competitive transplantation of the progeny of cultured BM 34-KSL cells; format: cell-based, mouse; conditions: progeny of 300 cGy-irradiated, EGF-treated BM 34-KSL cells; 8 weeks post-transplant
AKT-S473 = experiment: Phosphorylation of AKT-S473 in irradiated BM KSL cells; format: cell-based, mouse; conditions: EGF treatment of irradiated BM KSL cells in culture, within 15 minutes, vs TSF alone
Procedure: Cell apoptosis and necrosis were analyzed by flow cytometry according to manufacturer's protocols with Annexin V-FITC and 7-AAD staining (BD, San Jose, Calif.). […] Cells were fixed and permeabilized with Fix Buffer I and Perm Buffer III (BD), and then stained with mouse anti-phospho-AKT-S473 PE (BD) or isotype control. Cell cycle analysis was performed by flow cytometric analysis modified from previous reports (Jordan et al, Exp. Hematol. 24:1347-1355 (1996), Chute et al, Hum. Gene Ther. 11:2515-2528 (2000), Sungartz et al, Blood 119:1308-1309 (2012)). Briefly, cells were fixed and permeabilized with 0.25% Saponin (Calbiochem, La Jolla, Calif.), 2.5% paraformaldehyde, 2% FBS in 1×PBS, and then labeled with Ki67-FITC and 7-AAD (BD). BM lin^− cells from VavCre;EGFR^+/+ or VavCre;EGER^fl/fl were cultured with TSF or TSF+10 μM erlotinib, or TSF following 300 cGy for 72 hours, and then collected for total cell counts and CFCs analysis.

[2] = 700 cGy TBI, EGF 0.5 ug/G IP daily x 7 days, day +7

“EGF: epidermal growth factor; recombinant EGF (R&D Systems)” was tested. Which “phospho-DNA-PK levels by immunofluorescence staining” value (DNA-PK; 15 minutes) did it give?
The value was “increased phospho-DNA-PK; also recorded: significant increase”.

And the “phospho-DNA-PK levels by FACS analysis” value (DNA-PK; 1 hour)?
The value was “increased phospho-DNA-PK; also recorded: significant increase”.

And the “BrdU incorporation in BM KSL cells” value (BM KSL cells)?
The value was “significantly increased; also recorded: marked increase”.

What about the “increased BM KSL progenitor cells vs saline” value [1, 2] of the same substance?
The value was 6 fold.

And the “increased BM cells vs saline” value [1, 2]?
The value was 2 fold.

And the “increased CFCs vs saline” value [1, 2]?
Its value is 7 fold.

What about the “increased CFU-S12 vs saline” value [1, 2] of the same substance?
Its value is 8 fold.

And the BM cellularity ([1]; 700 cGy TBI, EGF daily x 7 days, day +7)?
Its BM cellularity is “preserved BM cellularity; also recorded: largely preserved”.

What about the “BM HSC content by competitive repopulation assay” value ([1]; 700 cGy TBI, EGF x 7 days, BM at day +7, vs saline) of the same substance?
The value was “significantly increased”.

And the “multilineage reconstitution of myeloid cells, B cells and T cells in recipients” value ([1]; BM from irradiated EGF-treated mice, 12 weeks post-transplant, vs saline)?
The value was “increased multilineage reconstitution”.

And the “repopulating cell content (donor stem cell engraftment in recipients)” value ([1]; Example 1, BM at day +7 or day +14 following 700 cGy TBI, EGF vs saline)?
Its value is “significantly higher repopulating cell content”.

What about the “recovery of bone marrow stem and progenitor cells” value ([1]; Example 1, recombinant EGF via intraperitoneal injection into irradiated wild type mice, vs controls) of the same substance?
The value was “marked acceleration”.

And the “engraftment in secondary transplant recipients at 12 weeks” value ([1]; donor BM collected at day +7 following TBI, data not shown)?
The value was “no significant engraftment”.

What about the “donor cell repopulation in secondary transplant recipients at 12 weeks” value ([1]; donor BM collected at day +14 following TBI from EGF-treated mice, vs saline) of the same substance?
Its value is “significantly increased; also recorded: markedly increased donor cell repopulation”.

And the “donor hematopoietic cell repopulation, higher vs cytokine cultures alone” value (BM 34-KSL cells)?
The value was 3 fold.

What about the “increase in Akt phosphorylation” value (AKT-S473) of the same substance?
Its value is 50%.
